Read-outs that look alike come from different tables or passages of the source.
Assays:
Assay in all cases: KINOMEscan (ScanMAX) kinase profiling
Format in all cases: binding
panel of 468 kinases [1] = molecular target: T1, panel of 468 kinases (Homo sapiens, UniProt O00750); settings: PIK3C2B; 1 μM; read-out: % control
T1 construct: purchased KINOMEscan (ScanMAX) service

panel of 468 kinases [2] = molecular target: T2, panel of 468 kinases (Homo sapiens, UniProt O14733); settings: MKK7; 1 μM; read-out: % control
T2 construct: purchased KINOMEscan (ScanMAX) service
T2 sequence (O14733 1-419): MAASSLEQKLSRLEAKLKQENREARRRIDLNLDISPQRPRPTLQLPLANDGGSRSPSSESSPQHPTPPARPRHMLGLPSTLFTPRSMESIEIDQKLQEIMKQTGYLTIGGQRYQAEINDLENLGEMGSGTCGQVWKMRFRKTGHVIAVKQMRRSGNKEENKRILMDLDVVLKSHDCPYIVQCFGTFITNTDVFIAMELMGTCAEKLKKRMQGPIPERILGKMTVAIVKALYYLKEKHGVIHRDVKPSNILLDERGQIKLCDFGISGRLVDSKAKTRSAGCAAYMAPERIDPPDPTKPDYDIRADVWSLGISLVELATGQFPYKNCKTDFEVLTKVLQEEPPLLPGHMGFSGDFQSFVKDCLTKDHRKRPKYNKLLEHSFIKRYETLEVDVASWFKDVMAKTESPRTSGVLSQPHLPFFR

panel of 468 kinases [3] = molecular target: T3, panel of 468 kinases (Homo sapiens, UniProt P00519, Q252H); settings: 1 μM, read-out: % control
T3 construct: purchased KINOMEscan (ScanMAX) service

panel of 468 kinases [4] = molecular target: T4, panel of 468 kinases (Homo sapiens, UniProt P00533, L861Q); settings: EGFR(L861Q); 1 μM; read-out: % control
T4 construct: purchased KINOMEscan (ScanMAX) service

panel of 468 kinases [5] = molecular target: T5, panel of 468 kinases (Homo sapiens, UniProt P09619); settings: PDGFRB; 1 μM; read-out: % control
T5 construct: purchased KINOMEscan (ScanMAX) service

panel of 468 kinases [6] = molecular target: T6, panel of 468 kinases (Homo sapiens, UniProt P12931); settings: SRC; 1 μM; read-out: % control
T6 construct: purchased KINOMEscan (ScanMAX) service

panel of 468 kinases [7] = molecular target: T7, panel of 468 kinases (Homo sapiens, UniProt P29320); settings: EPHA3; 1 μM; read-out: % control
T7 construct: purchased KINOMEscan (ScanMAX) service
T7 sequence (P29320 21-983): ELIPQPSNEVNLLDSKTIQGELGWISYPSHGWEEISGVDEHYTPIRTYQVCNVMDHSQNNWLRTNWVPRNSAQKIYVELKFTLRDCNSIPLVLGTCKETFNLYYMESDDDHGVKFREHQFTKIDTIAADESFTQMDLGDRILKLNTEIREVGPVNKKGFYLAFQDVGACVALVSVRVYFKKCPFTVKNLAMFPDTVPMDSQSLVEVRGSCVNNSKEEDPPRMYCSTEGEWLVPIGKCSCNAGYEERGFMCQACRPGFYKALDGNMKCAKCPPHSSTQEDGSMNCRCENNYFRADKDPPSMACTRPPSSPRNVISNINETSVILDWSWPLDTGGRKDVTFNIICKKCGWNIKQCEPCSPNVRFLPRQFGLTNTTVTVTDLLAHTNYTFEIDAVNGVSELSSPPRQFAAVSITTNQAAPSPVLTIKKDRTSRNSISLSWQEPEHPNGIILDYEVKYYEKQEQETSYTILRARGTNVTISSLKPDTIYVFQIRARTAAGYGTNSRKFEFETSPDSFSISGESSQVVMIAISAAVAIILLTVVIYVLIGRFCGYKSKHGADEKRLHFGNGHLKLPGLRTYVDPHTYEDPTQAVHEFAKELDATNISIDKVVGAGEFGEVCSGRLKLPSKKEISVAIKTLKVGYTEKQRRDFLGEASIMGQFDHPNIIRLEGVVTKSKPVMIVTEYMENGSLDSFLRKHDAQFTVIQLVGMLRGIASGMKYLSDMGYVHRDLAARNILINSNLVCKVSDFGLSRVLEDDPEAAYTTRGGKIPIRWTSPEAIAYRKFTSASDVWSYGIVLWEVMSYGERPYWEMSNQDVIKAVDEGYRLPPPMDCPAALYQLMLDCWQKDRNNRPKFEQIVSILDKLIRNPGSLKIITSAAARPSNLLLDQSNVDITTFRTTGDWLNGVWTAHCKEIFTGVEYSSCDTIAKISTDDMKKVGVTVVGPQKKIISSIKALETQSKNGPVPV

panel of 468 kinases [8] = molecular target: T8, panel of 468 kinases (Homo sapiens, UniProt P42336, H1047L); settings: PIK3CA(H1047L); 1 μM; read-out: % control
T8 construct: purchased KINOMEscan (ScanMAX) service

panel of 468 kinases [9] = molecular target: T9, panel of 468 kinases (Homo sapiens, UniProt Q04912); settings: MST1R; 1 μM; read-out: % control
T9 construct: purchased KINOMEscan (ScanMAX) service

panel of 468 kinases [10] = molecular target: T10, panel of 468 kinases (Homo sapiens, UniProt Q07912); settings: TNK2; 1 μM; read-out: % control
T10 construct: purchased KINOMEscan (ScanMAX) service

panel of 468 kinases [11] = molecular target: T11, panel of 468 kinases (Homo sapiens, UniProt Q13233); settings: MAP3K1; 1 μM; read-out: % control
T11 construct: purchased KINOMEscan (ScanMAX) service

panel of 468 kinases [12] = molecular target: T12, panel of 468 kinases (Homo sapiens, UniProt Q9C098); settings: DCAMKL3; 1 μM; read-out: % control
T12 construct: purchased KINOMEscan (ScanMAX) service

panel of 468 kinases [13] = molecular target: T13, panel of 468 kinases (Homo sapiens, UniProt Q9P0L2); settings: MARK1; 1 μM; read-out: % control
T13 construct: purchased KINOMEscan (ScanMAX) service

panel of 468 kinases [14] = molecular target: T14, panel of 468 kinases (Homo sapiens, UniProt Q9UK32); settings: 1 μM, read-out: % control
T14 construct: purchased KINOMEscan (ScanMAX) service

T4 sequence (P00533 25-1210 L861Q): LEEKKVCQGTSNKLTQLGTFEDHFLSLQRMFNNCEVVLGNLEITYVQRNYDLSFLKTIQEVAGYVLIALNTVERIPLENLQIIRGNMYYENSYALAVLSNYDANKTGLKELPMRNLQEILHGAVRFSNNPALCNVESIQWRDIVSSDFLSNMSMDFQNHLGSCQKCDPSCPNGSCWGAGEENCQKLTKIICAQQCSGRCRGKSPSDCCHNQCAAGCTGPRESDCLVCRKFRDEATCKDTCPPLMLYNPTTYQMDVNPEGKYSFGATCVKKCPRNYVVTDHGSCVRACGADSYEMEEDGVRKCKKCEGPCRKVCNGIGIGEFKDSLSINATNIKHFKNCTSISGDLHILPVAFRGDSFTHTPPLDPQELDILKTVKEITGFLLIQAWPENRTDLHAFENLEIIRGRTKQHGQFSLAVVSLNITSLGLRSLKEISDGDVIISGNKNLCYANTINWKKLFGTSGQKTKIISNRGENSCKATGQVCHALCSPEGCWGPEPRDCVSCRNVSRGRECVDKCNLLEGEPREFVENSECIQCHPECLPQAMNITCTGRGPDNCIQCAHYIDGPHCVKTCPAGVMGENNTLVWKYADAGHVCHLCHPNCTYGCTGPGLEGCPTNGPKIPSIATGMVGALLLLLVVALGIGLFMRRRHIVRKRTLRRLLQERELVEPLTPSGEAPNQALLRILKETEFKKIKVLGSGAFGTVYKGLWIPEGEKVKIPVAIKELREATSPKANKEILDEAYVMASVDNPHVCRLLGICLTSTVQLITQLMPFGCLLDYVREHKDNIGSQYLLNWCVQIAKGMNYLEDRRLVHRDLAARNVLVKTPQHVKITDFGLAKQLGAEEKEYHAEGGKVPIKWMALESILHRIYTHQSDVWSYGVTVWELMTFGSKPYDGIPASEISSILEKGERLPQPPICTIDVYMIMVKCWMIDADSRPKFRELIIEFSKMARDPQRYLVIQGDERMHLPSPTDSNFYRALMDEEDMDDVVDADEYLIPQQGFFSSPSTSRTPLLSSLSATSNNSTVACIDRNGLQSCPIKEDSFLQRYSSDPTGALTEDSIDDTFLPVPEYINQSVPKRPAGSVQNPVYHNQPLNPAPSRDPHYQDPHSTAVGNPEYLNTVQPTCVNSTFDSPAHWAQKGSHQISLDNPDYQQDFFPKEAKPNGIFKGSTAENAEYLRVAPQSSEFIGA
T13 sequence (Q9P0L2 whole entry): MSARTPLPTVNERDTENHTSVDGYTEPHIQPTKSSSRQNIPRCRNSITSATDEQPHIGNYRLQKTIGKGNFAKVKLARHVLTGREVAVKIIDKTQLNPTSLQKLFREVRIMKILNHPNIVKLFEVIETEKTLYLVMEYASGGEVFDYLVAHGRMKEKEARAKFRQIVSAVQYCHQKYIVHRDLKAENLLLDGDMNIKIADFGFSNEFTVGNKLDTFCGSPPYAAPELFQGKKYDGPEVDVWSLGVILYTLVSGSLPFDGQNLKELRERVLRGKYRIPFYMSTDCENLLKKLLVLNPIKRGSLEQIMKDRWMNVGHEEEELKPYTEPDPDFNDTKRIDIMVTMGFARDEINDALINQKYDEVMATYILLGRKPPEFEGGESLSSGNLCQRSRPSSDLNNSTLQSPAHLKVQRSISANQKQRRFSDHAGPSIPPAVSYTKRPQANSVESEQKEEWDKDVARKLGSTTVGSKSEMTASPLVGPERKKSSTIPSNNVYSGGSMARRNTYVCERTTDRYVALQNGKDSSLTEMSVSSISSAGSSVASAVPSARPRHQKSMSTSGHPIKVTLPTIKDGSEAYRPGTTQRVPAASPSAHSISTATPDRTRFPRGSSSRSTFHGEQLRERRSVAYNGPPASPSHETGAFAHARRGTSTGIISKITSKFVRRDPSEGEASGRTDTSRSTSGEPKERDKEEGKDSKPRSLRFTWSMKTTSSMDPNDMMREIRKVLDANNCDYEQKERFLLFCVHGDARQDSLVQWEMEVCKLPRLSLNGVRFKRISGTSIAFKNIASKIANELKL
T9 sequence (Q04912 25-1400): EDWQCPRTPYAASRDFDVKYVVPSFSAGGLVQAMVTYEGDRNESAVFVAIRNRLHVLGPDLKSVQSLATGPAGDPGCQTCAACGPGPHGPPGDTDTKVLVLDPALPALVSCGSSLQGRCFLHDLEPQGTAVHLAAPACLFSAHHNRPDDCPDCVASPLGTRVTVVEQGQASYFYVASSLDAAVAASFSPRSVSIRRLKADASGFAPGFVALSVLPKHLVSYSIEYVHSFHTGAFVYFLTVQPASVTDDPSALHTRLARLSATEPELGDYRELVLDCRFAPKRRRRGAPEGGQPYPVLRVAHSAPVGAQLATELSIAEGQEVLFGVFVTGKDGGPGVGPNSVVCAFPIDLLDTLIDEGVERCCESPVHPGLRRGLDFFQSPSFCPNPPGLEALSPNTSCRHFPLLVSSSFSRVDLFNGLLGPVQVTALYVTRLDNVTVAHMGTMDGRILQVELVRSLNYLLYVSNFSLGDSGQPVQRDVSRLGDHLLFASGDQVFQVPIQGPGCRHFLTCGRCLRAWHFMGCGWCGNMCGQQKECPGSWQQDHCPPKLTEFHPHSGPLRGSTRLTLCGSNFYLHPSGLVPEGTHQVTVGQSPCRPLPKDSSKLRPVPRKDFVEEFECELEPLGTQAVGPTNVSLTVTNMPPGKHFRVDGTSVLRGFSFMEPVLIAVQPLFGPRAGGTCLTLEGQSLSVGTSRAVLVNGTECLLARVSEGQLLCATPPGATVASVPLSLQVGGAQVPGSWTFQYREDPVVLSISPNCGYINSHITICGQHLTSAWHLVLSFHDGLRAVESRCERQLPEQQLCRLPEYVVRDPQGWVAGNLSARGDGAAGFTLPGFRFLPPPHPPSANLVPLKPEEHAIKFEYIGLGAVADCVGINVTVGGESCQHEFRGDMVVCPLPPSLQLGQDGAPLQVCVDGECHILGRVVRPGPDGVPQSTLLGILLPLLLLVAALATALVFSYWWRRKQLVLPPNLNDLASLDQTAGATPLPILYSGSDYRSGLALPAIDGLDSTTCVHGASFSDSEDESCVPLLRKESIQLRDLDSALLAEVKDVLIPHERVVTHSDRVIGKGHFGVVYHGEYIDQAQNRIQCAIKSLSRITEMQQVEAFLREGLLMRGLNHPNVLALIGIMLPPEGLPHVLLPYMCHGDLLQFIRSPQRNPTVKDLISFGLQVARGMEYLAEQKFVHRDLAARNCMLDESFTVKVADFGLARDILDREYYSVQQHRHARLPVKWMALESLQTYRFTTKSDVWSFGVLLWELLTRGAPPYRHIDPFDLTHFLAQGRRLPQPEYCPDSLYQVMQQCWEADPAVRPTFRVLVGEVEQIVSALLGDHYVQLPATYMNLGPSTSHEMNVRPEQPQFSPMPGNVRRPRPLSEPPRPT
T6 sequence (P12931 whole entry): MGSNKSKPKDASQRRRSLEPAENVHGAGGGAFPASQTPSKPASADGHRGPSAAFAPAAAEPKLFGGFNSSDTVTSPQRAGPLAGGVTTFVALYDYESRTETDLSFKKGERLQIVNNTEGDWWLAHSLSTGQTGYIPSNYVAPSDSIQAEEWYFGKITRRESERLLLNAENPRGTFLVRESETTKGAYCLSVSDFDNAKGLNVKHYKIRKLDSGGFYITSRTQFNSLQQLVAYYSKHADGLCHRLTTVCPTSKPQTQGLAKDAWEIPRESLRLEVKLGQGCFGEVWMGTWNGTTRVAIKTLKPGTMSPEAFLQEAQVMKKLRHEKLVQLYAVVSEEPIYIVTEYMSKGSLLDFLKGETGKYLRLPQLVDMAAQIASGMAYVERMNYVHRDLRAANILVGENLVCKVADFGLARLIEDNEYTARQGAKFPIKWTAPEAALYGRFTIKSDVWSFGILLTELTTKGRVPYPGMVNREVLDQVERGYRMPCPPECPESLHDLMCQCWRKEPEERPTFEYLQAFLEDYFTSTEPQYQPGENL
T12 sequence (Q9C098 whole entry): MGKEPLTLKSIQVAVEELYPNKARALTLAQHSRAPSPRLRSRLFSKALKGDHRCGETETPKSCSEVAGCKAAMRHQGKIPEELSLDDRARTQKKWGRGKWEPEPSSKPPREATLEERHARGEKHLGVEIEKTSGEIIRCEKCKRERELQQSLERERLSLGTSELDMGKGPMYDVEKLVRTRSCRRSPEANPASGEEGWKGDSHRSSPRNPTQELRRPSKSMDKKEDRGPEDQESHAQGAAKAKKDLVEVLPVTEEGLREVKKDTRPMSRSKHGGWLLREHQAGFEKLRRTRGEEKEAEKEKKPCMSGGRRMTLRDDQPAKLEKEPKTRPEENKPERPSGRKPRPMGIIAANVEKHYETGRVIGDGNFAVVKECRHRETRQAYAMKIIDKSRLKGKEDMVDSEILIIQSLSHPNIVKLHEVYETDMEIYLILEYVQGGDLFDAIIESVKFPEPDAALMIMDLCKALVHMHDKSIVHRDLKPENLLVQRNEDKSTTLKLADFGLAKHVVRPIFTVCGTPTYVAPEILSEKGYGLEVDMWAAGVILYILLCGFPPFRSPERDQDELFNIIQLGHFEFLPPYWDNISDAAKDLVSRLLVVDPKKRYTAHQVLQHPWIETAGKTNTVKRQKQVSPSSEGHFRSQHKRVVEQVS

Compound	remaining binding at 1 µM (panel of 468 kinases [1])	remaining binding at 1 µM (panel of 468 kinases [2])	remaining binding at 1 µM (panel of 468 kinases [3]; ABL1(Q252H)-nonphosphorylated)	remaining binding at 1 µM (panel of 468 kinases [3]; ABL1(Q252H)-phosphorylated)	remaining binding at 1 µM (panel of 468 kinases [4])	remaining binding at 1 µM (panel of 468 kinases [5])	remaining binding at 1 µM (panel of 468 kinases [6])	remaining binding at 1 µM (panel of 468 kinases [7])	remaining binding at 1 µM (panel of 468 kinases [8])	remaining binding at 1 µM (panel of 468 kinases [9])	remaining binding at 1 µM (panel of 468 kinases [10])	remaining binding at 1 µM (panel of 468 kinases [11])	remaining binding at 1 µM (panel of 468 kinases [12])	remaining binding at 1 µM (panel of 468 kinases [13])	remaining binding at 1 µM (panel of 468 kinases [14]; RSK4(Kin.Dom.1-N-terminal))	remaining binding at 1 µM (panel of 468 kinases [14]; RSK4(Kin.Dom.2-C-terminal))
CNc1nc(Nc2ccc(S(=O)(=O)N3CCC(N4CCOCC4)CC3)cc2OC)nc2[nH]cc(Cl)c12 [Compound 12, 5-chloro-N2-(2-methoxy-4-((4-morpholinopiperidin-1-yl)sulfonyl)phenyl)-N4-methyl-7H-pyrrolo[2,3-d]pyrimidine-2,4-diamine]	100%	100%	100%	79%	100%	89%	100%	100%	56%	100%	100%	79%	100%	100%	96%	99%
CNc1nc(Nc2ccc(P3(=O)CCN(C4CCOCC4)CC3)cc2OC)nc2[nH]cc(Cl)c12 [Compound 77, 4-(4-((5-chloro-4-(methylamino)-7H-pyrrolo[2,3-d]pyrimidin-2-yl)amino)-3-methoxyphenyl)-1-(tetrahydro-2H-pyran-4-yl)-1,4-azaphosphinane 4-oxide]	96%	100%	100%	62%	100%	100%	100%	100%	61%	100%	81%	73%	100%	96%	92%	77%
CNc1nc(Nc2ccc(C(=O)N3CCC(N4CCOCC4)CC3)c3c2OCO3)nc2[nH]cc(Cl)c12 [Compound 75, (7-((5-chloro-4-(methylamino)-7H-pyrrolo[2,3-d]pyrimidin-2-yl)amino)benzo[d][1,3]dioxol-4-yl)(4-morpholinopiperidin-1-yl)methanone]	100%	96%	100%	57%	100%	56%	100%	100%	86%	100%	100%	82%	100%	100%	86%	100%
